From patent US7238727B2, “Compositions for improving lipid metabolism” (Chugai Seiyaku Kabushiki Kaisha, priority 2000, dated 2007)

Assays:
Assay type in all cases: in vivo
[1] = test system: rabbit atherosclerotic model; experiment: Intimal thickening in HE stained thoracic aorta sections; conditions: 0.2% cholesterol + 3.0% L-valine, 13 weeks
Experimental: (§1) Nine New Zealand White male rabbits aged 8 weeks (average body weight, 2.06 kg) were divided into three groups (n=3) by feed and fed for 13 weeks (temperature, 20 to 26° C.; humidity, 30 to 70%; illumination, 8:00 to 20:00). The untreated group was given an ordinary feed (NOSAN feed for laboratory animals, LABOR STOCK, manufactured by Nihon Nosan Kogyo, K.K.). As for the atherosclerotic model, the control group was given the ordinary feed plus 0.2% cholesterol (manufactured by Wako Pure Chemical Industries, Ltd.), and the valine group was given the ordinary feed plus 0.2% cholesterol plus 3.0% L-valine (JP, manufactured by Ajinomoto Co., Inc.). Throughout the experiment, the rabbits of each group were maintained on the feed (constant feeding) and water (using a water supplier) as desired. After 13 weeks, blood samples were collected from the abdominal aorta of the animals of each group under etherization and the animals were then sacrificed by bleeding. By subsequent autopsy, the degree of atherosclerotic lesion (plaque formation) in thoracic aorta and the degree of fatty liver were compared. Sections of the thoracic aorta and the liver were also prepared and examined histopathologically for intimal thickening and the formation of fat droplets. Sections of the thoracic aorta were HE stained (hematoxylin-eosin stained).

[2] = test system: matured rat models fed with high-fat diets; experiment: Serobiochemical examination of rats fed a high-fat diet
From the text: (§2) After the completion of the pre-feeding, the animals were divided into 6 groups depending on feed and administration period. Rats of valine+lard groups were fed with a solid feed prepared by adding 8.4% lard (CAMERIA: manufactured by Romi Smilfood B. V.) and 3.0% L-valine (JP, manufactured by Ajinomoto Co., Inc.) to a conventional feed (CMF: manufactured by Oriental Yeast Co., Ltd.) for 2 or 4 weeks. Animals of casein+lard groups (i.e., control groups) were fed with a solid feed prepared by adding 8.4% lard and 3.0% milk-origin casein (manufactured by Wako Pure Chemical Industries, Ltd.) to the conventional feed (CMF: manufactured by Oriental Yeast Co., Ltd.) for 2 or 4 weeks. Animals of normal food groups were fed with a solid feed which was the conventional feed (CMF: manufactured by Oriental Yeast Co., Ltd.) for 2 or 4 weeks. During the experimental period, the rats of each group were maintained on the feed (constant feeding) and water (using a water supplier) as desired. Each group had 3 rats which were fed in a single cage (temperature: 20 to 26° C., humidity: 30 to 70%, illumination: 8:00 to 20:00) throughout the experimental period.
(§3) After 2 or 4 weeks, the blood samples of the animals of each group were collected from the abdominal aorta and then the animals were sacrificed by bleeding under etherization followed by autopsy. As intraperitoneal adipose tissue, the adipose tissue around the left testis and epididymis was weighed. The collected blood samples were subjected to a serobiochemical examination and the like.

[3] = test system: rabbit atherosclerotic model; experiment: Plaque formation in aortic arch specimens; set-up: key to plaque formation in specimens of aortic arch: +: visible slight plaque formation; ++: visible moderate plaque formation; −: no visible plaque formation; conditions: 13 weeks; for plaque formation in specimens of aortic arch: feed with 0.2% cholesterol + 3.0% L-valine
Experimental: as §1, with “In order to evaluate the efficacy of valine on atherosclerosis and fatty liver, an L-valine containing feed was administered to a rabbit atherosclerotic model and its effect was investigated. Nine” for “Nine”, “droplets.” for “droplets. Sections of the thoracic aorta were HE stained (hematoxylin-eosin stained).”

[4] = test system: rabbit atherosclerotic model; experiment: Fatty liver by naked eye and HE stained liver sections; conditions: 0.2% cholesterol + 3.0% L-valine, 13 weeks
Experimental: as §1, with “droplets.” for “droplets. Sections of the thoracic aorta were HE stained (hematoxylin-eosin stained).”

[5] = test system: matured rat models fed with high-fat diets; experiment: Peritesticular adipose tissue weight in rats fed a high-fat diet; conditions: for adipose tissue weight less than that of casein+lard group / mean adipose tissue weight relative to casein+lard group: 3.0% L-valine + 8.4% lard; for peritesticular adipose tissue weight: feed with 3.0% L-valine + 8.4% lard, mean±standard deviation, n=3
Experimental: To evaluate the effects of valine on lipid metabolism, the effects of the administration of L-valine containing feeds were examined on matured rat models fed with high-fat diets.
18 Crj:CD(SD) IGS male rats aged 12 weeks (body weight: 420 to 464 g, 443 g on average) were pre-fed for 5 days (not more than 4 animals/cage, temperature: 20 to 26° C., humidity: 30 to 70%, illumination: 8:00 to 20:00). During the pre-feeding period, the animals were maintained on a feed (constant feeding) and water (using a water supplier) as desired.
as §2, §3

[6] = test system: matured rat models fed with high-fat diets; experiment: Intraperitoneal adipose tissue area by abdominal CT scanning; conditions: 4 weeks-feeding group
From the text: as §2
22 days after the initiation of the experiment, one rat of each of the 4 weeks-feeding groups was subjected to the abdominal CT scanning (slice width: 5 mm) under anesthesia with Nembutal. From the CT image thus obtained, the intraperitoneal adipose tissue area was determined as the mean of the intraperitoneal adipose-containing areas in posterior 4 slices from the sites where no kidney was observed.

[7] = 2 weeks feeding, mean±standard deviation, n=3
[8] = 4 weeks feeding, mean±standard deviation, n=3

Compound: CC(C)[C@H](N)C(=O)O [valine, L-valine]
- intimal thickening of thoracic aorta [1]: intimal thickening was hardly visible
- mean free fatty acid level relative to casein+lard group ([2]; 2 weeks feeding): about 0.73 times
- mean lipid peroxide level relative to casein+lard group ([2]; 2 weeks feeding): about 0.42 times
- mean triacylglycerol level relative to casein+lard group ([2]; 2 weeks feeding): about 0.54 times
- mean β-lipoprotein level relative to casein+lard group ([2]; 2 weeks feeding): about 0.53 times
- mean serum free fatty acid level [2, 7]: 0.35±0.06 mEq/L
- mean serum lipid peroxide level [2, 7]: 1.1 ± 0.7 nmol/dL
- mean serum triacylglycerol level [2, 7]: 52.0 ± 21.9 mg/dL
- mean serum β-lipoprotein level [2, 7]: 33.3 ± 14.5 mg/dL
- mean free fatty acid level relative to casein+lard group ([2]; 4 weeks feeding): about 0.82 times
- mean triacylglycerol level relative to casein+lard group ([2]; 4 weeks feeding): about 0.60 times
- mean β-lipoprotein level relative to casein+lard group ([2]; 4 weeks feeding): about 0.62 times
- mean serum free fatty acid level [2, 8]: 0.36±0.11 mEq/L
- mean serum triacylglycerol level [2, 8]: 67.7 ± 33.5 mg/dL
- mean serum β-lipoprotein level [2, 8]: 41.0 ± 10.8 mg/dL
- plaque formation compared with control group ([3]; 0.2% cholesterol + 3.0% L-valine, n=3): no plaque formation was visible, or plaque formation was visible but to a lesser extent than in the control group
- plaque formation in specimens of aortic arch ([3]; animal 1): −
- plaque formation in specimens of aortic arch ([3]; animal 2): −
- plaque formation in specimens of aortic arch ([3]; animal 3): +
- yellowing of the liver (fatty liver), naked eye [4]: no yellowing of the liver was observed, or yellowing of the liver was visible but to a lesser extent than in the control group
- fat droplets and swelling of hepatocytes ([4]; HE stained liver sections): hepatocytes contained such a small number of fat droplets that they experienced no visible swelling
- adipose tissue weight compared with normal food group ([5]; 2 weeks feeding): smaller than that of the normal food group
- adipose tissue weight less than that of casein+lard group ([5]; 2 weeks feeding): 30%
- mean adipose tissue weight relative to casein+lard group ([5]; 2 weeks feeding): about 0.70 times
- peritesticular adipose tissue weight ([5]; 2 weeks feeding): 2.55 ± 0.38 g
- adipose tissue weight compared with normal food group ([5]; 4 weeks feeding): smaller than that of the normal food group
- adipose tissue weight less than that of casein+lard group ([5]; 4 weeks feeding): 26%
- mean adipose tissue weight relative to casein+lard group ([5]; 4 weeks feeding): about 0.74 times
- peritesticular adipose tissue weight ([5]; 4 weeks feeding): 2.92 ± 0.40 g
- increase in the adipose tissue weight ([5]; both 2 weeks and 4 weeks feeding, feed intake almost the same): inhibited
- increase in the intraperitoneal adipose tissue area versus casein+lard group ([6]; CT): more inhibited
- intraperitoneal adipose tissue area ([6]; CT 22 days after initiation, n=1): 3.2 cm^2
- intraperitoneal adipose tissue relative to casein+lard group ([6]; CT, n=1): about 0.65 times
